# Laboratory results from paper PMC6892255, “Identification of a potent small-molecule inhibitor of bacterial DNA repair that potentiates quinolone antibiotic activity in methicillin-resistant Staphylococcus aureus^” (Bioorganic & Medicinal Chemistry, 2019).
# “Also recorded” adds a separate entry of the source.
# Columns and labels:
# MRSA (USA300 JE2) = assay: Growth inhibition in the presence of H2O2; type: cell-based, Staphylococcus aureus
# Procedure: The analogue panel was further tested for potentiation of alternative DNA-damaging agents Mitomycin-C (MMC) and hydrogen peroxide (Table S2), which function via alkylation and oxidization DNA bases, respectively.
# (§1) 2.1. Biological and biochemical methods
# (§2) Bacterial strains and culture conditions
# (§3) Strains utilized in the present study are detailed in Table S1. All strains used were cultivated on Mueller Hinton Agar (MHA) and grown to stationary-phase in Mueller Hinton Broth (MHB) at 37 °C for 16 h, with shaking at 180 r.p.m.
# (§4) Minimum inhibitory concentration (MIC) assays
# (§5) MIC assays were performed in 96 well plates and MICs were determined in accordance with the broth microdilution protocol.4 Strains grown to stationary-phase in MHB were adjusted to 5 x 10^5 colony-forming units (CFU)/mL in fresh MHB (100 µL/well) supplemented with DMSO to ensure a constant concentration of 0.5% (v/v) DMSO across all experiments. Where […]
# (§6) or H2O2 (200 μM). Test compounds were prepared as two-fold serial dilutions. Cells were […]
# (§7) as the lowest concentration with no visible bacterial growth, and the optical density at 600 nm (OD600) was recorded. OD600 measurements were background corrected against no-inocula control and normalized to DMSO control for dose-response analysis. The EC50 value mean and SEM were calculated from individual EC50 values from three biological replicates. […]
# [1] = test system: methicillin-resistant S. aureus (MRSA, USA300 JE2); assay: MIC / growth inhibition assay (end-point OD600), single agent; type: cell-based, Staphylococcus aureus
# Description: Minimum inhibitory concentration (MIC) assays were used to evaluate the antimicrobial activity of compounds against Gram-negative (E. coli) and Gram-positive (S. aureus) bacteria. […] Gram-positive bacteria are more susceptible to small-molecule penetration, and compounds were therefore assessed for growth inhibition against the S. aureus SH1000 strain.
# Methicillin-resistant S. aureus (MRSA) is a multi-drug resistant bacterium responsible for a large number of nosocomial infections.[34] The emergence of community associated (CA)-MRSA capable of infection of healthy individuals highlights its significance and clinical relevance.[35]
# as §1, §2, §3, §4, §5, §6, §7
# [2] = test system: AddAB (StrepII-AddA and His6-AddB); assay: Recombinant AddAB pulldown with compound-functionalized Sepharose; type: binding; details: E. coli lysate co-expressing StrepII-AddA and His6-AddB, Western blot
# Description: A SOS reporter system was generated by transformation of JE2 cells with a plasmid containing GFP under control of the recA promoter. Activation of the SOS response in these cells results in expression of GFP which can be monitored by fluorescence intensity. […] This decrease is indicative of inhibition of the SOS response during cell death, and consistent with the proposed inhibition of AddAB-mediated DNA repair pathways. Finally, to provide additional evidence that inhibition of the bacterial DNA repair pathway by IMP-1700 (10) occurred through inhibition of AddAB, a target pulldown was conducted. IMP-1700 (10) was coupled with N-Boc-ethylenediamine to afford amide 19, followed by removal of the Boc group in 4 M HCl/dioxane and purification using strong cation exchange resin. The resulting free amine 20 was coupled to N-hydroxysuccinimide (NHS)-activated Sepharose resin at 4 °C overnight (Figure 2C), and the remaining NHS sites quenched in Tris buffer. SoluBL21 competent E. coli were transformed with pET28b^+ containing StrepII-tagged AddA and hexahistidine-tagged AddB, and expression induced overnight at 16 °C. Cells were lysed via sonication and the total lysate incubated with IMP-1700 (10)-functionalized or control Sepharose beads which had been treated with DMSO then Tris-quenched. Beads were washed three times with lysis buffer and bound protein eluted with SDS-PAGE sample buffer, followed by PAGE separation. […]
# agar (LA) supplemented with kanamycin (50 μg/mL). Liquid cultures were grown at 37 °C with shaking at 180 r.p.m until an OD600 of 0.5 was reached, at which point cultures were cooled to 16 °C. Protein expression was induced by addition of isopropyl β-D-thiogalactoside (1 mM), followed by incubation for 20 h at 16 °C with shaking. Cells were collected by centrifugation (4,000 × g, 5 min) and stored at -20 °C.
# Cells were re-suspended in lysis buffer (50 mM Tris-HCl, 150 mM NaCl, pH 7.5) and lysed on ice by sonication (2 min, 5 s on-off cycle, 40% amplitude) using a Vibra-cell sonicator (Sonics). […]
structure (smiles),measurement,setting,value
O=C(O)c1cn(C2CC2)c2cc(N3CCN(C(=S)Nc4ccc(C(F)(F)F)cc4)CC3)c(F)cc2c1=O [Compound 10],Potentiation of hydrogen peroxide,MRSA (USA300 JE2); JE2,did not potentiate
same,EC50,"MRSA (USA300 JE2); read-out: EC50 Compound + H2O2 (200 µM), MRSA USA300 JE2, H2O2 200 µM",4.1 ± 0.6 µM
same,EC50,"[1]; Staphylococcus aureus, 18 h, read-out: EC50 S. aureus (USA300 JE2) Compound only, single agent, end-point OD600 after 18 h",3.8 ± 0.5 µM
same,fold less potent against JE2 compared to SH1000,[1]; ratio of single-agent EC50 values,> 20 fold
same,Pulldown of AddA and AddB by compound-functionalized Sepharose,[2],allows co-isolation of the complex
same,Pulldown of AddA and AddB by compound-functionalized Sepharose,[2]; listed as IMP-1700,both AddA and AddB subunits were pulled down; also recorded: successfully pulled down
